Measured values: patent EP0535241A1, “NOVEL LEUCINE AMINOPEPTIDASE” (SUNTORY LIMITED, priority 1991, dated 1992)

Target: T1, leucine aminopeptidase of human placenta origin (PLAP), purified from human retroplacental sera, containing SEQ ID NOs: 1, 2, 3 and 4 (Homo sapiens, UniProt Q9UIQ6)
T1 construct: PLAP was purified by fractionating 900 ml of retroplacental sera by ammonium sulfate fractionation; from tissue; host or cells: human retroplacental sera
Experiment: PLAP enzyme assay with L-leucyl-P-nitroanilide as substrate (Lineweaver-Burk plot)
Format: biochemical
Protocol: An assay of PLAP was carried out according to a method of Kurauchi et al. (Kurauchi, O. et al. Enzyme, 35, p197-205, 1986) using L-leucyl-P-nitroanilide as a substrate. Namely, a substrate adjusted to 1.6 mM of a final concentration was added to a 20 mM Tris-HCl buffer (pH 7.2) (1.0 ml) in the presence of a 20 mM L-methionine, and the mixture was incubated at 37°C for 10 minutes. After finishing the reaction, 3.0 ml of a 1M acetate buffer (pH 4.2) was added to terminate the reaction, and the amount of released P-nitroanilide was measured by absorption of 405 nm. One unit of the enzyme is defined as an activity of the enzyme that releases 1 µ mole of the P-nitroanilide for one minute.

[1] = purified PLAP, calculated according to Lineweaver-Burk plot, 20 mM Tris-HCl buffer (pH 7.2), 37°C

T1 sequence (Q9UIQ6 155-1025 limits assumed): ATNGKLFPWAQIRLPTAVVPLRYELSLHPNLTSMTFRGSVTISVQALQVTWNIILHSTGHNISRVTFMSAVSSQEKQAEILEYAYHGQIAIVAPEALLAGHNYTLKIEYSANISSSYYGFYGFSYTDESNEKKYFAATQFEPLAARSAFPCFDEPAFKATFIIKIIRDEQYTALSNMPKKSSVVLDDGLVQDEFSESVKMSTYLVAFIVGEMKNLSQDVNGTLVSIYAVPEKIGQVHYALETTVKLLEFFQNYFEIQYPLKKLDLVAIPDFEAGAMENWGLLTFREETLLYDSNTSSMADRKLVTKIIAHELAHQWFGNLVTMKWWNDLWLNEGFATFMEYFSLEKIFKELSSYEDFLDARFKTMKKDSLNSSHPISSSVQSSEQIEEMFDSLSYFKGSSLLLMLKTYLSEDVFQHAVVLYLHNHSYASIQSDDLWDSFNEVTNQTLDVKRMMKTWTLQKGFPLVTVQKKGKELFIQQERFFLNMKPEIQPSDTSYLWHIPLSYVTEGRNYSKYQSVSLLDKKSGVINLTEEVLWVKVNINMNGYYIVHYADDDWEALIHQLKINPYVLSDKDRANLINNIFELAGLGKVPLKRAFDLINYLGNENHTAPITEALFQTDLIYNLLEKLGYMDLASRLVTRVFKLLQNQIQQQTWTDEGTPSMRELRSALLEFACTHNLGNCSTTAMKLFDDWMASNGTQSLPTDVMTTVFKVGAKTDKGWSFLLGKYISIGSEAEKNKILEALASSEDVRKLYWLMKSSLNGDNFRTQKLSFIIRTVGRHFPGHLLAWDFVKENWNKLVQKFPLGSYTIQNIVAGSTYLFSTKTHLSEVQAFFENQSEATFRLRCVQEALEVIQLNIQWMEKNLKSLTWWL

Structure (SMILES): CC(C)C[C@H](N)C(=O)Nc1ccc([N+](=O)[O-])cc1 [L-Leucyl-P-nitroanilide]
- Km value for degradation of L-Leucyl-P-nitroanilide [1]: 4.17 mM
- Vmax for degradation of L-Leucyl-P-nitroanilide [1]: 108 µmol/min/g

Structure (SMILES): CSCC[C@H](N)C(=O)O [L-methionine]
- inhibition of L-leucyl-P-nitroanilide degrading activity by L-methionine (assay carried out in the presence of 20 mM L-methionine, substrate 1.6 mM): not inhibited
